{"source": "patent US12459902B2", "about": "“Crystalline forms of 4-(7-hydroxy-2-isopropyl-4-oxo-4H-quinazolin-3-yl)-benzonitrile and formulations thereof” (priority 2020, dated 2025)", "key": {"[1]": {"assay": "Water uptake on exposure to moisture (hygroscopicity)", "assay_type": "physicochemical", "conditions": "for maximum water uptake: up to 95% RH at 25° C."}, "[2]": {"assay_type": "physicochemical"}, "[3]": {"assay": "Solubility in water", "conditions": "water at 25° C."}}, "data": [{"compound": "CC(C)c1nc2cc(O)ccc2c(=O)n1-c1ccc(C#N)cc1", "note": "[crystal form M, 4-(7-Hydroxy-2-isopropyl-4-oxo-4H-quinazolin-3-yl)-benzonitrile]", "values": [{"measurement": "hygroscopicity", "setting": "[1]; 25° C.", "result": "non hygroscopic"}, {"measurement": "maximum water uptake", "setting": "[1]", "result": "less than 0.1%"}, {"measurement": "thermodynamic stability relative to crystal form B", "setting": "[2]; temperature range from 20° C. to 35° C.", "result": "thermodynamically more stable than crystal form B"}, {"measurement": "thermodynamic stability relative to crystal form Q", "setting": "[2]; temperature range from 22° C. to 35° C.", "result": "thermodynamically more stable than crystal form Q"}, {"measurement": "thermodynamic stability relative to crystal form E", "setting": "[2]; temperature range from 30° C. to 45° C.", "result": "thermodynamically more stable than crystal form E"}, {"measurement": "solubility in water", "setting": "[3]", "result": 40, "unit": "µg/mL"}]}, {"compound": "CC(C)c1nc2cc(O)ccc2c(=O)n1-c1ccc(C#N)cc1", "note": "[crystal form B, 4-(7-Hydroxy-2-isopropyl-4-oxo-4H-quinazolin-3-yl)-benzonitrile]", "values": [{"measurement": "conversion of equimolar suspension of crystal form B and crystal form M", "setting": "[2]; 20° C., 30° C. and 35° C., isopropylacetate, dichloromethane, ethanol or water, 7 days", "result": "converted after 7 days almost completely into crystal form M"}]}, {"compound": "CC(C)c1nc2cc(O)ccc2c(=O)n1-c1ccc(C#N)cc1", "note": "[crystal form Q, 4-(7-Hydroxy-2-isopropyl-4-oxo-4H-quinazolin-3-yl)-benzonitrile]", "values": [{"measurement": "hygroscopicity", "setting": "[1]; 25° C.", "result": "non hygroscopic"}, {"measurement": "maximum water uptake", "setting": "[1]", "result": "less than 0.1%"}, {"measurement": "conversion of equimolar suspension of crystal form M and crystal form Q", "setting": "[2]; 22° C., 30° C. and 35° C., isopropylacetate, dichloromethane, ethanol or water, 7 days", "result": "converted after 7 days completely into crystal form M"}]}, {"compound": "CC(C)c1nc2cc(O)ccc2c(=O)n1-c1ccc(C#N)cc1", "note": "[crystal form K′, 4-(7-Hydroxy-2-isopropyl-4-oxo-4H-quinazolin-3-yl)-benzonitrile]", "values": [{"measurement": "hygroscopicity", "setting": "[1]; 25° C.", "result": "non-hygroscopic"}, {"measurement": "maximum water uptake", "setting": "[1]", "result": "less than 0.2%"}]}, {"compound": "CC(C)c1nc2cc(O)ccc2c(=O)n1-c1ccc(C#N)cc1", "note": "[crystal form E, 4-(7-Hydroxy-2-isopropyl-4-oxo-4H-quinazolin-3-yl)-benzonitrile]", "values": [{"measurement": "conversion of equimolar suspension of crystal form M and crystal form E", "setting": "[2]; 30° C., 35° C. and 45° C., isopropylacetate, dichloromethane, ethanol or water, 7 days", "result": "converted after 7 days completely into Modification M"}]}, {"compound": "CC(C)c1nc2cc(O)ccc2c(=O)n1-c1ccc(C#N)cc1", "note": "[Hydrate HB, 4-(7-Hydroxy-2-isopropyl-4-oxo-4H-quinazolin-3-yl)-benzonitrile]", "values": [{"measurement": "additional water uptake above 70% RH", "setting": "[1]; above 70% RH, at 95% RH, 25° C.", "result": "about 2.5%"}, {"measurement": "water uptake up to 70% RH", "setting": "[1]; up to 70% RH at 25° C.", "result": "slight uptake of water"}]}]}
